# Experimental data as given in patent US20070276034A1, “Compounds, compositions and methods for the treatment of synucleinopathies” (priority 2002, published 2007).
# Experiments:
# [1] = test system: BE-M17 human neuroblastoma cells overexpressing A53T α-synuclein; test: Thioflavin S aggregation assay in rotenone-treated cells; assay type: cell-based; details: 500 nM, 1 μM or 5 μM rotenone (FIGS. 4A-E)
# Source text: (§1) Therefore, to test the therapeutic potential of the compounds, two cell-based assays were utilized. In both assays, rotenone is used to induce mitochondrial oxidative stress and α-synuclein aggregation. The first assay utilizes the binding of the fluorescent dye thioflavin S to structures with high β-sheet content including α-synuclein fibrils. Therefore, quantitative assessment of the extent of thioflavin S-positive staining of fixed cells is used to test the ability of the compounds to decrease the amount of α-synuclein aggregates. In the second assay, cell viability is assessed using the XTT Cytotoxicity assay, which is dependent on intact, functional mitochondria in live cells. Thus, the XTT Cytotoxicity assay is used to test the ability of the compounds to ameliorate the mitochondrial toxicity and resulting loss of viability associated with the accumulation of α-synuclein aggregates. Phrased another way, the XTT Cytotoxicity assay is used to gauge the compounds neuroprotective efficacy. These studies are presented in the following examples.
# (§2) BE-M17 human neuroblastoma cells stably transfected with A53T-mutant human α-synuclein were obtained. Cell culture reagents were obtained from Gibco/Invitrogen, and cells were grown in OPTIMEM supplemented with 10% FBS, Penicillin (100 units/mil)-Streptomycin (100 μg/ml) and 500 μg/ml G418 as previously described (Ostrerova-Golts et al., J. Neurosci., 20:6048-6054, 2000).
# Thioflavin S is commonly used to detect amyloid-containing structures in situ, including in brain tissue (Vallet et al., Acta Neuropathol., 83:170-178, 1992), and cultured cells (Ostrerova-Golts et al., J. Neurosci., 20:6048-6054, 2000), whereas thioflavin T is often used as an in vitro reagent to analyze the aggregation of soluble amyloid proteins into fibrils enriched in β-pleated sheet structures (LeVine III, Prot. Sci., 2:404-410, 1993). Therefore, Thioflavin S histochemistry was used on cultured cells to detect aggregates containing a high degree of […] structures that formed in response to oxidative stress-inducing agents (in this case rotenone) as previously described, with minor modifications (Ostrerova-Golts et al., J. Neurosci, 20:6048-6054, 2000). Briefly, for these studies, cells were grown on Poly-D-Lysine coated glass slide chambers at approximately 3×10^4 cells/cm^2. After 24 hours, cells were treated with 500 nM, 1 μM or 5 μM rotenone (Sigma) or vehicle (0.05% DMSO) as indicated. Immediately after rotenone (or vehicle) addition, compounds were added at the indicated concentration, or cell culture media only (no compound) in the presence of rotenone was added. Identical treatments were repeated after 48 hours. After an additional 48 hours, cells were fixed for 25 minutes in 3% paraformaldehyde. After a PBS wash, the cells were incubated with 0.015% thioflavin S in 50% ethanol for 25 minutes, washed twice for four minutes in 50% ethanol and twice for five minutes in deionized water and then mounted using an aqueous-based mountant designed to protect against photobleaching. Aggregates that bind to thioflavin S were detected with a fluorescent microscope using a High Q FITC filter set (480 to 535 nm bandwidth) and a 20× objective lens unless otherwise indicated. Between 8 and 16 representative images per condition were selected, imaged and processed by an experimenter who was blinded to treatment conditions. To assess the amount of thioflavin S-positive aggregates, the total area per field covered by thioflavin S-positive inclusions was determined. […] Spurious, non-cell associated fluorescence was manually removed. Unless indicated otherwise, data represent group means ±SEM. Statistical analyses were performed with GraphPad Prism (GraphPad Inc). Differences between means (two samples) were assessed by the […]. Differences among multiple means were assessed by one-factor ANOVA followed by Tukey's multiple comparison test.
# [2] = test system: A53T α-synuclein-expressing BE-M17 cells; test: XTT Cytotoxicity assay - protection against rotenone-induced cytotoxicity; assay type: cell-based; details: 40-44 hours
# Source text: as §1, §2
# Research has shown that the accumulation of α-synuclein fibrils in Lewy bodies contributes mechanistically to the degradation of neurons in Parkinson's disease and related disorders (Polymeropoulos et al., Science 276:2045-2047, 1997; Kruger et al., Nature Genet. 18:106-108, 1998). Here, the XTT Cytotoxicity assay (hereafter referred to as the XTT assay) was used to measure the ability of test compounds to protect against rotenone-induced cytotoxicity (neuroprotective ability). The assay is based on the principle that conversion of the yellow tetrazolium salt XTT to form an orange formazan dye (that absorbs light around 490 nm) occurs only in metabolically active, viable cells. Therefore, light absorbance at 490 nm is proportional to cell viability. For this assay, cells were plated in 96 well tissue culture dishes at 10^4 cells per well. After 24 hours, cells were treated with 500 nM or 2 μM rotenone, or vehicle (0.05% DMSO) as indicated. Immediately after rotenone addition, compounds were added at the indicated concentration. […] Untreated cells received cell culture media only (no compound, with or without rotenone). After 40-44 hours of treatment, conditioned media was removed and replaced with 100 μl fresh media and 50 μl XTT labeling reaction mixture according to the manufacturer's recommendations. Four to five hours later, the absorbance at 490 nm was measured and corrected for absorbance at the 700 nm reference wavelength. […] Percent inhibition of cell death was calculated as the proportion of the rotenone-induced absorbance (viability) decrease that was eliminated by test compound treatment.
compound,measurement,setting,value
"C=C(C)[C@H]1Cc2c(ccc3c2O[C@@H]2COc4cc(OC)c(OC)cc4[C@@H]2C3=O)O1 [rotenone, reference compound]",thioflavin S-positive aggregates relative to vehicle-treated control cells,[1],dose-dependent increase in thioflavin S-positive aggregates
same,decrease of viability relative to untreated cells,[2]; 500 nM rotenone,30-40%
same,decrease of viability relative to untreated cells,[2]; 2 μM rotenone,40-50%
